Assay results published in patent US12606540B2, “Triazolone compound” (MEDSHINE DISCOVERY INC., priority 2020, dated 2026).

Experiments:
MLK1(h) = target: T1, MLK1(h) (Homo sapiens, UniProt P80192); assay: Eurofins KinaseProfiler kinase selectivity; format: biochemical; settings: compound at 1 μM; ATP 45 μM; read-out: Residual enzyme activity
T1 construct: purchased Eurofins (KinaseProfiler platform)
Procedure: (§1) This experiment aims to study the activity and selectivity of the compounds towards kinases selected from the Eurofins KinaseProfiler™ platform. The compounds against each selected kinase were tested using the KinaseProfiler™ experimental procedure of Eurofins standard, which follows the relevant standard operating procedures. Protein kinases (except ATM(h) and DNA-PK(h)) were tested by […], while lipid kinases, ATM(h), ATR/ATRIP(h) and DNA-PK(h) were tested by HRTF®.
(§2) Compound powders were prepared into 10 mM mother liquor through 100% DMSO solution and then diluted to 50× liquid.
(§3) An appropriate amount of 50× storage solution of the test compound was taken into the test wells, and then the kinase and substrate were added and mixed well. A certain concentration of ATP was added to start the reaction.
(§4) Data were processed using custom in-house analysis software.
(§5) The kinase off-target study in vitro of compound 5 of the present disclosure was carried out to evaluate the inhibitory activity against 15 common kinases at a concentration of 1 μM of the drug, and the results are as shown in Table 6.

TNIK(h) = target: T2, TNIK(h) (Homo sapiens, UniProt Q9UKE5); assay: Eurofins KinaseProfiler kinase selectivity; format: biochemical; settings: compound at 1 μM; ATP 70 μM; read-out: Residual enzyme activity
T2 construct: purchased Eurofins (KinaseProfiler platform)
T2 sequence (Q9UKE5 whole entry): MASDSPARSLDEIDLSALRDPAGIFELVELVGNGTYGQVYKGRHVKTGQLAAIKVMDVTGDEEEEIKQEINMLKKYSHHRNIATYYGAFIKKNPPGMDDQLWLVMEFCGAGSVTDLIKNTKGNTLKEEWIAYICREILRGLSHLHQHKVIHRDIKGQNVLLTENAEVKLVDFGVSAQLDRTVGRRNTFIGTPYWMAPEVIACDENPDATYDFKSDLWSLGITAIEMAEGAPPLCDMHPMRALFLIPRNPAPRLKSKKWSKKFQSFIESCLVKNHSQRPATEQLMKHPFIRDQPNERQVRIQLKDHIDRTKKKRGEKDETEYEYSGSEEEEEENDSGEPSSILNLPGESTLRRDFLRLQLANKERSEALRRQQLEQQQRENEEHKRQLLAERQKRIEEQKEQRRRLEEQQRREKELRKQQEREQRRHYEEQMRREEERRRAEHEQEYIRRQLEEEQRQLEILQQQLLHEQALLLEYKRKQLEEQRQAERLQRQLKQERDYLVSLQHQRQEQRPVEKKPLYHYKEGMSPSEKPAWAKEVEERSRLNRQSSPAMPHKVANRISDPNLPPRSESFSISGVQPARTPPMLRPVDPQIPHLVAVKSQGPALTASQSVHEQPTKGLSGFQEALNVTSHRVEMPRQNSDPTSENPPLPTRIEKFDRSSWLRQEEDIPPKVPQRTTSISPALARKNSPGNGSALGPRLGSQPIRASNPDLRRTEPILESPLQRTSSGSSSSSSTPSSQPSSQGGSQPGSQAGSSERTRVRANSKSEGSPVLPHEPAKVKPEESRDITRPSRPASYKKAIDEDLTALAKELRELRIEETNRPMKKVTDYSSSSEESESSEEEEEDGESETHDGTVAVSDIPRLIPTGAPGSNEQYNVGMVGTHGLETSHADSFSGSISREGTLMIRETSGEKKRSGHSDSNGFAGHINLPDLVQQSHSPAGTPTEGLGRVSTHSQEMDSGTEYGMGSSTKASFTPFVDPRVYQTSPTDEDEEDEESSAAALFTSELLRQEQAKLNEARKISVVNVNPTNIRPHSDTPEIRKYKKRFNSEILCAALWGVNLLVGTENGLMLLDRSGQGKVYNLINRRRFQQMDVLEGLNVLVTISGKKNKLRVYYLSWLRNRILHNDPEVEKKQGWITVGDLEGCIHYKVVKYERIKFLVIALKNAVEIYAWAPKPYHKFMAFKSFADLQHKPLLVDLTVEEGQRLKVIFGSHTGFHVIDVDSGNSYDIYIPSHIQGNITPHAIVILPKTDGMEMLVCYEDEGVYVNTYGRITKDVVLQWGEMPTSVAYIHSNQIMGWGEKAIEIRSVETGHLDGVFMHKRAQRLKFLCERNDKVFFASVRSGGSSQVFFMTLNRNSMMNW
Procedure: as §1, §2, §3, §4, §5

ALK(h) = target: T3, ALK(h) (Homo sapiens, UniProt Q9UM73); assay: Eurofins KinaseProfiler kinase selectivity; format: biochemical; settings: compound at 1 μM; ATP 200 μM; read-out: Residual enzyme activity
T3 construct: purchased Eurofins (KinaseProfiler platform)
Procedure: as §1, §2, §3, §4, §5

JAK2(h) = target: T4, JAK2(h) (Homo sapiens, UniProt O60674); assay: Eurofins KinaseProfiler kinase selectivity; format: biochemical; settings: compound at 1 μM; ATP 45 μM; read-out: Residual enzyme activity
T4 construct: purchased Eurofins (KinaseProfiler platform)
Procedure: as §1, §2, §3, §4, §5

Fyn(h) = target: T5, Fyn(h) (Homo sapiens, UniProt P06241); assay: Eurofins KinaseProfiler kinase selectivity; format: biochemical; settings: compound at 1 μM; ATP 70 μM; read-out: Residual enzyme activity
T5 construct: purchased Eurofins (KinaseProfiler platform)
Procedure: as §1, §2, §3, §4, §5

CDK9/cyclin T1(h) = target: T6, CDK9/cyclin T1(h) (Homo sapiens, UniProt P50750); assay: Eurofins KinaseProfiler kinase selectivity; format: biochemical; settings: compound at 1 μM; ATP 45 μM; read-out: Residual enzyme activity
T6 construct: purchased Eurofins (KinaseProfiler platform)
Procedure: as §1, §2, §3, §4, §5

Flt3(h) = target: T7, Flt3(h) (Homo sapiens, UniProt P36888); assay: Eurofins KinaseProfiler kinase selectivity; format: biochemical; settings: compound at 1 μM; ATP 200 μM; read-out: Residual enzyme activity
T7 construct: purchased Eurofins (KinaseProfiler platform)
Procedure: as §1, §2, §3, §4, §5

Abl(h) = target: T8, Abl(h) (Homo sapiens, UniProt P00519); assay: Eurofins KinaseProfiler kinase selectivity; format: biochemical; settings: compound at 1 μM; ATP 45 μM; read-out: Residual enzyme activity
T8 construct: purchased Eurofins (KinaseProfiler platform)
Procedure: as §1, §2, §3, §4, §5

LOK(h) = target: T9, LOK(h) (Homo sapiens, UniProt O94804); assay: Eurofins KinaseProfiler kinase selectivity; format: biochemical; settings: compound at 1 μM; ATP 120 μM; read-out: Residual enzyme activity
T9 construct: purchased Eurofins (KinaseProfiler platform)
Procedure: as §1, §2, §3, §4, §5

KDR(h) = target: T10, KDR(h) (Homo sapiens, UniProt P35968); assay: Eurofins KinaseProfiler kinase selectivity; format: biochemical; settings: compound at 1 μM; ATP 90 μM; read-out: Residual enzyme activity
T10 construct: purchased Eurofins (KinaseProfiler platform)
T10 sequence (P35968 20-1356): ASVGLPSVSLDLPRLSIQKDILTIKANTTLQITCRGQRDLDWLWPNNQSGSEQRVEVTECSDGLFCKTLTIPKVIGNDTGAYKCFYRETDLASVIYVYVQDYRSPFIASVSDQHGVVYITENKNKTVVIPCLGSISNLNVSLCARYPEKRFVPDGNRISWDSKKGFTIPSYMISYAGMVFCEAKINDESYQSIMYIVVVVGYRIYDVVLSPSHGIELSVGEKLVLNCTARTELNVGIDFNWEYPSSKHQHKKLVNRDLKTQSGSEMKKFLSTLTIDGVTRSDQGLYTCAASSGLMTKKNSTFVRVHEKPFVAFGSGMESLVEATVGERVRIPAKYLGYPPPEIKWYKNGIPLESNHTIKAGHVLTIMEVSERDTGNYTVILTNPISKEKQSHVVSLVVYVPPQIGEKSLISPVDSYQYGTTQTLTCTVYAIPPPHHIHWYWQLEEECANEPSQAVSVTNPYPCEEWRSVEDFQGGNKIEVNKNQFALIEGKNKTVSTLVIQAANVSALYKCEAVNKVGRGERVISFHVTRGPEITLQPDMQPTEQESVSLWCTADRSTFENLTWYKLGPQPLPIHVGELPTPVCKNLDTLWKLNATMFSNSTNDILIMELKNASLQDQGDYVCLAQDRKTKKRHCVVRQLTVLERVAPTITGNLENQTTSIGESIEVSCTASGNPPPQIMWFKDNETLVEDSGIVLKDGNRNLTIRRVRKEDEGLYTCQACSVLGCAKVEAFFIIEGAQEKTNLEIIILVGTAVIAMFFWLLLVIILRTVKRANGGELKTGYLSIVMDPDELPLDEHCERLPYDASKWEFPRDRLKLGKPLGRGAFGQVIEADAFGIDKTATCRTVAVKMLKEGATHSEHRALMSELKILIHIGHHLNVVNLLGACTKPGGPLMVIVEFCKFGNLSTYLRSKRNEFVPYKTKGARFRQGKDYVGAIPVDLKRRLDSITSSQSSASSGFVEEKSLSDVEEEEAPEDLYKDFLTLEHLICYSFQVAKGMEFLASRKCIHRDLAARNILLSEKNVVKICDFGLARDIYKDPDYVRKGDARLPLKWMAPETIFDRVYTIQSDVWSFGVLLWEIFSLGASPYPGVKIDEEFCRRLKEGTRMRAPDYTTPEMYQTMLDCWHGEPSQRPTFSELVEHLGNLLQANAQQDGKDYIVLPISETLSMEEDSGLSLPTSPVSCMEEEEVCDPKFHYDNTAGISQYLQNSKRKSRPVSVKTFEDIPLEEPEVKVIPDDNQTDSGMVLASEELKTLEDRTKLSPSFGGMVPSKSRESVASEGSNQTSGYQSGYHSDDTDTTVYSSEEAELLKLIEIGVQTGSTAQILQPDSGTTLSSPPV
Procedure: as §1, §2, §3, §4, §5

CDK2/cyclinA(h) = target: T11, CDK2/cyclinA(h) (Homo sapiens, UniProt P24941); assay: Eurofins KinaseProfiler kinase selectivity; format: biochemical; settings: compound at 1 μM; ATP 45 μM; read-out: Residual enzyme activity
T11 construct: purchased Eurofins (KinaseProfiler platform)
Procedure: as §1, §2, §3, §4, §5

GSK3β(h) = target: T12, GSK3β(h) (Homo sapiens, UniProt P49841); assay: Eurofins KinaseProfiler kinase selectivity; format: biochemical; settings: compound at 1 μM; ATP 15 μM; read-out: Residual enzyme activity
T12 construct: purchased Eurofins (KinaseProfiler platform)
Procedure: as §1, §2, §3, §4, §5

Rsk1(h) = target: T13, Rsk1(h) (Homo sapiens, UniProt Q15418); assay: Eurofins KinaseProfiler kinase selectivity; format: biochemical; settings: compound at 1 μM; ATP 45 μM; read-out: Residual enzyme activity
T13 construct: purchased Eurofins (KinaseProfiler platform)
Procedure: as §1, §2, §3, §4, §5

CDK1/cyclinB(h) = target: T14, CDK1/cyclinB(h) (Homo sapiens, UniProt P06493); assay: Eurofins KinaseProfiler kinase selectivity; format: biochemical; settings: compound at 1 μM; ATP 45 μM; read-out: Residual enzyme activity
T14 construct: purchased Eurofins (KinaseProfiler platform)
T14 sequence (P06493 whole entry): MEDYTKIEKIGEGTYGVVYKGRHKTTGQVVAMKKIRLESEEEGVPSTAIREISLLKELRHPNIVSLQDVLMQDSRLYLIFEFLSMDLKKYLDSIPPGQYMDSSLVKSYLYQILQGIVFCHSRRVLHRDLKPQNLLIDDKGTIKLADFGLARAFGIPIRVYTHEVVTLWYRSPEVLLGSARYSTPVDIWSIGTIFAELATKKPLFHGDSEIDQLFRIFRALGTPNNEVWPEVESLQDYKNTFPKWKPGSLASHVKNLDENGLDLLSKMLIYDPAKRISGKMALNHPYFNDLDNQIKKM
T14 sequence (P14635 whole entry partner): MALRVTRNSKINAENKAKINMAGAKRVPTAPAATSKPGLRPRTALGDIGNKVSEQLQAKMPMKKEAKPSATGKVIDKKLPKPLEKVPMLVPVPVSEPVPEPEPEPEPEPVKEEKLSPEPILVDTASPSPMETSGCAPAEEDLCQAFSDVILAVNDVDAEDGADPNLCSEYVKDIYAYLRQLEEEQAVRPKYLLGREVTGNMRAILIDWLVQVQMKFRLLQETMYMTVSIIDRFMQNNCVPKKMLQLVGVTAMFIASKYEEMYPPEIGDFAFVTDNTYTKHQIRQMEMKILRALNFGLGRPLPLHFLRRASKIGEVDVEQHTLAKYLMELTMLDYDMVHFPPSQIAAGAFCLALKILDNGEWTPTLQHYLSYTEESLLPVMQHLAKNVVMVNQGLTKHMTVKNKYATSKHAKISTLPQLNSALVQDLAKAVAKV
Procedure: as §1, §2, §3, §4, §5

MST1(h) = target: T15, MST1(h) (Homo sapiens, UniProt Q13043); assay: Eurofins KinaseProfiler kinase selectivity; format: biochemical; settings: compound at 1 μM; ATP 90 μM; read-out: Residual enzyme activity
T15 construct: purchased Eurofins (KinaseProfiler platform)
T15 sequence (Q13043 whole entry): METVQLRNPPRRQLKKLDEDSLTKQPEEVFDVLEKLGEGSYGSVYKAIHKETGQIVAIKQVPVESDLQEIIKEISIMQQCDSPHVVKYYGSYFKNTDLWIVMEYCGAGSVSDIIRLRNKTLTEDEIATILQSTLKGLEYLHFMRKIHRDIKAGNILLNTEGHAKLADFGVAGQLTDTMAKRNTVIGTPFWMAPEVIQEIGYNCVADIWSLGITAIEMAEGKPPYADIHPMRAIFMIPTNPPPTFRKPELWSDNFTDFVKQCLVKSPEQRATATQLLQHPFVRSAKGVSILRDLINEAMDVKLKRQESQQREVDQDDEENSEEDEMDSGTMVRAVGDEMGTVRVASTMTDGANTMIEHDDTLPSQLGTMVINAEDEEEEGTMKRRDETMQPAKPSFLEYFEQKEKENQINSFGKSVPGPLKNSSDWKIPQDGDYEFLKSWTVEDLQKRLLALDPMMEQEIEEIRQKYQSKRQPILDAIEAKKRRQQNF
Procedure: as §1, §2, §3, §4, §5

[1] = test system: human peripheral blood mononuclear cells; assay: Proliferation inhibition of peripheral blood mononuclear cells (flow cytometry); format: cell-based; settings: PBMC, PHA-M 5 μg/mL stimulation, 48 hours
Procedure: Flow cytometry was used to detect cell proliferation of human peripheral blood mononuclear cells.
• Cell complete medium: 445 mL of RPMI1640 cell culture+50 mL of fetal bovine serum+5 mL of double antibody • Buffer 1: 9.9 mL of phosphate buffer+0.1 mL of 10% bovine serum protein • Buffer 2: 10 mL of fetal bovine serum+490 mL of phosphate buffer 3.2 Cell Thawing • 3.2.1 20 mL of cell complete medium was added to a 50 mL of centrifuge tube and pre-heated in a 37° C. water bath for 5 minutes; • 3.2.2 the cell cryotubes were removed from the liquid nitrogen storage tank and placed on dry ice for 5-10 minutes to allow the liquid nitrogen to evaporate fully; • 3.2.3 the cell cryotubes were clamped with forceps and placed in the water bath, and shaken gently to thaw the frozen cells quickly; • 3.2.4 the thawed cells were transferred to the pre-heated cell complete medium with a pipette, centrifuged at 350 g for 5 min, then the supernatant was discarded, and the cells was resuspended by adding 10 mL of phosphate buffer; • 3.2.5 counting by cell counter, and cell viability and cell count were recorded. 3.3 Cell Labeling • 3.3.1 Cell proliferation labeling solution (CellTrace™ Violet, 1:1000 dilution) was prepared • 3.3.2 the above mixture was centrifuged at 350 g for 5 minutes, and the supernatant was discarded, then the cells (20×10^6/mL) were resuspended by adding Buffer 1, and the resuspended cells were gently blown by pipette, and an equal volume of cell proliferation labeling solution (prepared in 3.3.1) was added, and gently blown well by pipette; • 3.3.3 incubating in a 5% CO2, 37° C. cell incubator for 18 minutes; • 3.3.4 the 5-fold volume of cell complete medium was added and leaved at room temperature for 5 minutes to terminate the staining reaction; • 3.3.5 the above mixture was centrifuged at 350 g for 5 minutes, and the supernatant was discarded, then the cells were resuspended by adding 10 mL of cell complete medium, counted by cell counter, and cell viability and cell count were recorded; • 3.3.6 the above mixture was centrifuged at 350 g for 5 minutes, and the supernatant was discarded, then the corresponding volume of cell complete medium was added according to the cell counting results, and the density of the resuspended cells was 2×10^6/mL and was to be used. 3.4 Cell Proliferation Stimulation • 3.4.1 50 μL/well prepared cell suspension (1×10^5 cells/well), 50 μL of 4×PHA-M (the final concentration is 5 μg/mL), 50 μL of 4×test compound, 50 μL of cell complete medium were added to the wells of 96-well cell culture plate, and the corresponding control group was set up; (total volume of the reaction system is 200 μL) • 3.4.2 the cell culture plate was placed and incubated in a 5% CO2, 37° C. cell incubator for 48 hours. 3.5 Cell Proliferation Detection • 3.5.1 the above mixture was centrifuged at 350 g for 5 minutes and the supernatant was transferred to a new cell culture plate and stored at −80° C.; • 3.5.2 200 μL of Buffer 2 was add to the wells of the culture plate, and the above mixture was centrifuged at 350 g and the supernatant was discarded; • 3.5.3 cell dead or living staining solution (7-AAD, 1:100 dilution) was prepared with Buffer 2; • 3.5.4 100 μL/well of dead or living staining solution was added, and gently blown and mixed well by pipette, and stained at room temperature for 10 min; • 3.5.5 cell proliferation was detected by flow cytometry analyzer and analyzed by Flowjo software.

T1 sequence (P80192 whole entry): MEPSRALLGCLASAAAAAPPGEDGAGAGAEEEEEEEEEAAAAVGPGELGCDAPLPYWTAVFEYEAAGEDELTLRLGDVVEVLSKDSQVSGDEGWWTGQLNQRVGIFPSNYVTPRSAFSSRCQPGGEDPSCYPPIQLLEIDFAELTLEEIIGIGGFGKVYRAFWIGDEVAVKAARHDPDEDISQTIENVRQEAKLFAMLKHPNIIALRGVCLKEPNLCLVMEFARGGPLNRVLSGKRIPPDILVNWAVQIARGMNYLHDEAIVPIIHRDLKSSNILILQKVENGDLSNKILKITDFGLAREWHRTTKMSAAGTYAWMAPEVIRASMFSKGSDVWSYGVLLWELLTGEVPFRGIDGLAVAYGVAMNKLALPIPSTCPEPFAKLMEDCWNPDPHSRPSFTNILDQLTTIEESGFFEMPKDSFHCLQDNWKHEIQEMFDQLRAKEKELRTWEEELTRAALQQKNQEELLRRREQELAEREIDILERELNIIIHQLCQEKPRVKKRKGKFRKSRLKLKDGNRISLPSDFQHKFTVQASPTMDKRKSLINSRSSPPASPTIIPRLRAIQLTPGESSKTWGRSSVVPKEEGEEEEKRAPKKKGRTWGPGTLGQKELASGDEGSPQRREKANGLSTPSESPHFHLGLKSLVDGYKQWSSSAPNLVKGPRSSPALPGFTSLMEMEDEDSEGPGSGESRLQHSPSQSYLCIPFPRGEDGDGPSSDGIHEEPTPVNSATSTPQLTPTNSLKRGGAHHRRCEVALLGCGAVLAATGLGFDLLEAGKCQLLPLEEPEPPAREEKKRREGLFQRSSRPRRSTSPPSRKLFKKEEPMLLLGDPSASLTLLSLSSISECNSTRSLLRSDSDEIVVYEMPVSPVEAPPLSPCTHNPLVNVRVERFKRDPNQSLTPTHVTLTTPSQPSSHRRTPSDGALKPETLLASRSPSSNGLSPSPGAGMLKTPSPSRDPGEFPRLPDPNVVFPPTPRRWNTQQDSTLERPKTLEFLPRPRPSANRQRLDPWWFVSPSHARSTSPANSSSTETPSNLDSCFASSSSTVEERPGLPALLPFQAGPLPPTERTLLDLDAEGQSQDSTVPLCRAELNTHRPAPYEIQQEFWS

SMILES: CCn1c(CO)nn(-c2cc(O[C@@H](C)C(F)(F)F)c(/C(F)=C/c3ncccc3Cl)cc2F)c1=O [Compound 5]
- remaining activity at 1 µM (MLK1(h)): 111%
- remaining activity at 1 µM (TNIK(h)): 84%
- remaining activity at 1 µM (ALK(h)): 94%
- remaining activity at 1 µM (JAK2(h)): 81%
- remaining activity at 1 µM (Fyn(h)): 121%
- remaining activity at 1 µM (CDK9/cyclin T1(h)): 95%
- remaining activity at 1 µM (Flt3(h)): 84%
- remaining activity at 1 µM (Abl(h)): 88%
- remaining activity at 1 µM (LOK(h)): 108%
- remaining activity at 1 µM (KDR(h)): 90%
- remaining activity at 1 µM (CDK2/cyclinA(h)): 72%
- remaining activity at 1 µM (GSK3β(h)): 126%
- remaining activity at 1 µM (Rsk1(h)): 88%
- remaining activity at 1 µM (CDK1/cyclinB(h)): 91%
- remaining activity at 1 µM (MST1(h)): 96%
- IC50 [1]: 0.8 nM
